This is an account of results in patent US5232923A, “Catechol derivatives and pharmaceutical preparations containing same” (Mitsui Toatsu Chemicals, Incorporated, priority 1988, dated 1993).

The test system of test [1] is production and secretion of NGF in mouse L-M cells. In words: Promoting activity for the production and secretion of NGF in mouse L-M cells (ELISA of medium after 24 h). As to conditions: Table 5, L-M cells, 0.4 mM; for fold induction at 400 µM: Mus musculus, 24 h, fold increase over control (1.00), read-out: NGF L-M Cell Increase Ratio; for NGF L-M Cell Concentration: 24 hours, control 0.87. The test is classed as cell-based. In general terms: In an ELISA, binding on a coated surface is turned into a signal by an enzyme label.

Test [2] deals with production and secretion of NGF in mouse brain astroglial cells. In words: Promoting activity for the production and secretion of NGF in mouse brain astroglial cells (ELISA of medium after 24 h). Type of test: cell-based. The settings on record: Table 5, 0.4 mM; for fold induction at 400 µM: Mus musculus, 24 h, fold increase over control (1.00), read-out: NGF Astroglial Cell Increase Ratio; for NGF Astroglial Cell Concentration: 24 hours, control 31.8. The method, then: Promoting activity for the production and secretion of NGF in mouse brain astroglial cells
The experiment was performed by inducing astroglial cells from the mouse forebrain to a culture system according to the procedures of S. Furukawa et al. which is described in Biochem. Biophys. Res. Commun., 136, 57-63 (1986).
Forebrains of 8-days old mice were dissected out and cut into small pieces. The pieces were washed with calcium- and magnesium-free phosphate-bufferedsaline (hereinafter abbreviated as PBS), treated with 0.25% trypsin containing PBS at 37° C. for 30 minutes and triturated with a Pasteur pipet to give a suspension. Cells and cell clumps were recovered by centrifugation at 200 xg for 5 minutes. They were cultured in Dulbecco modified Eagle's medium (a product of Gibco Co. hereinafter abbreviated as DMEM) containing 10% fetal calf serum, 50 μ units/ml of penicillin, and 50 μg/ml of streptomycin, for 10 to 14 days with medium changes every 3 days. After completing confluency, the cells were dissociated by trypsin treatment and recultured in new culture flasks. This procedure was repeated further twice and more. The culture became a uniform cell cluster. The cell cluster for use in this invention can be stained not less than 97% in accordance with the PAP staining method (peroxidase/[…] staining method) using anti-human glial fibrillar acidic protein (GFAP) rabbit antiserum. The cells will hereinafter be referred to as astroglial cells.
Astroglial cells were innoculated in 24-well plates having a well surface area of 2.1 cm^2 (a product of Falcon Co.) at a cell density of about 3×10^4 cells/well and cultured for 3 days in DMEM medium supplemented with 10% of fetal calf serum. After completing confluency about ([…]), the medium was changed to DMEM medium (0.5 ml/well) supplemented with 0.5% of bovine serum albumin (fraction V) and cultured for 3 days. The culture was further continued with medium changes every 3 days. After cells were practically synchronized in the quiscent stage, the medium was changed to 0.5 ml of the same medium and containing a prescribed concentration of test sample as illustrated in the Tables. NGF in the medium after cultivating for 24 hours was determined by the ELISA as mentioned above. Data are expressed as fold increase in NGF content over that in the absence of the test sample. The lower detection limit of the ELISA is 0.25 pg/ml and the NGF content of control medium was normally 1-10 pg/0.5 ml/well. Data are presented as the mean of four determinations. The results are illustrated in Tables 1-5.

As to `CN1CCN(C(=O)CCc2ccc(O)c(O)c2)CC1` [Compound 100, N-Methyl-N'-[3-(3,4-dihydroxyphenyl)propionyl]piperazine], in test [1], the fold induction at 400 µM is 5 and the “NGF L-M Cell Concentration” value is given as 4.35 ng/well. Also, in test [2], the fold induction at 400 µM amounted to 8.2 and the “NGF Astroglial Cell Concentration” value is 260.8 ng/well.

For the compound `O=C(CCc1ccc(O)c(O)c1)N1CCN(Cc2ccccc2)CC1` [Compound 101, N-Benzyl-N'-[3-(3,4-dihydroxyphenyl)propionyl]piperazine], in test [1], the fold induction at 400 µM was 5.2 and the “NGF L-M Cell Concentration” value is 4.52 ng/well. In test [2], the fold induction at 400 µM is 9.6 and the “NGF Astroglial Cell Concentration” value came to 305.3 ng/well.

With `O=C(CCc1ccc(O)c(O)c1)N1CCN(C(c2ccccc2)c2ccccc2)CC1` [Compound 102, N-Diphenylmethyl-N'-[3-(3,4-dihydroxyphenyl)propionyl]piperazine], in test [1], the fold induction at 400 µM came out at 5.1 and the “NGF L-M Cell Concentration” value stood at 4.44 ng/well. In test [2], the fold induction at 400 µM stood at 10.1 and the “NGF Astroglial Cell Concentration” value is on record as 321.2 ng/well.

For `COC(=O)[C@@H]1CCCN1C(=O)CCc1ccc(O)c(O)c1` [Compound 103, N-[3-(3,4-dihydroxyphenyl)propionyl]-L-proline methyl ester], in test [1], the fold induction at 400 µM turned out to be 4.3 and the “NGF L-M Cell Concentration” value turned out to be 3.74 ng/well. In addition, in test [2], the fold induction at 400 µM turned out to be 6.3 and the “NGF Astroglial Cell Concentration” value amounted to 200.3 ng/well.

For `CCOC(=O)C1CCCN(C(=O)CCc2ccc(O)c(O)c2)C1` (centres unmarked) [Compound 104, Ethyl N-[3-(3,4-dihydroxyphenyl)propionyl]nipecotinate], in test [1], the fold induction at 400 µM was determined as 5.7 and the “NGF L-M Cell Concentration” value is 4.96 ng/well. Further, in test [2], the fold induction at 400 µM stood at 7.8 and the “NGF Astroglial Cell Concentration” value stood at 248.0 ng/well.
